Source: US20250326988A1, “SELF-PRESERVED, MILD LIQUID LAUNDRY DETERGENT FORMULAS” (Henkel AG & Co. KGaA, priority 2024, published 2025)

Tested on: Fungi
Test: Micro challenge, fungi reduction
Type: cell-based
Conditions: for Estimated Regression Coefficients for 7 Day: Coefficient / Estimated Regression Coefficients for 14 Day: Coefficient / Estimated Regression Coefficients for 21 Day: Coefficient / Estimated Regression Coefficients for 28 Day: Coefficient: Minitab regression of fungi log reductions; for efficacy of ingredient for log reduction as indicated by estimated regression coefficients: ethanol at day 7, sodium chloride afterwards
Protocol: Micro challenges were performed on Formulations 61J-L, 62A-M, […] and […] prepared in Example 1 for log reduction rates of bacteria and fungi. Bacteria were double challenged (inoculated about 1E08 to 1E09 CFU/g) and Fungi was single challenged (inoculated about 1E8 to 5E8). A. brasillienis (mold), S. aureus, E. coli, P. gergoviae/[…] mixture, P. aeruginosa, C. albicans (yeast), H. venusta were tested. Pass criteria for bacterium was greater than 3 log reduction on day 7 and 4 logs on day 28. Pass criteria for fungi was greater than 1 log reduction at 14 days with no growth observed afterwards.

SMILES	Estimated Regression Coefficients for 7 Day: Coefficient	Estimated Regression Coefficients for 14 Day: Coefficient	Estimated Regression Coefficients for 21 Day: Coefficient	Estimated Regression Coefficients for 28 Day: Coefficient	efficacy of ingredient for log reduction as indicated by estimated regression coefficients
CCO [Ethanol]	2.24	3.08	3.22	3.09	most effective log reduction
CC(C(=O)O)N(CC(=O)O)CC(=O)O (centres unmarked) [MGDA, methylglycinediacetic acid]	1.16	1.42	1.43	1.42	
[Cl-].[Na+] [NaCl, sodium chloride]	1.36	2.14	3.13	3.42	comparable to ethanol's efficacy
